Consider four molecules from patent US7902401B2, “Fluorinated compounds” (priority 2006, dated 2011).

Data set [1] has as its system Sprague-Dawley rats. The data set can be described thus: Maximal Electroshock Assay (Rat). It is filed as in vivo. The conditions noted are these: rat MES, 0.5 h and 4 h pretreatment timepoints. The method, then: Male, Sprague-Dawley rats (approx. 100 g body weight) were prescreened for tonic seizure susceptibility prior to drug testing. […] Protection was defined by the absence of a tonic extensor seizure in the animal within 20 s of application of the electrical stimulus, which typically occurred in all vehicle pretreated animals. Animals received only one electroshock on the drug test day and so separate animals were used for the 0.5 h and 4 h timepoints. All drugs were administered in multiple doses.

Data set [2] concerns CD-1 mice. The data set can be described thus: Maximal Electroshock Assay (Mouse). It is filed as in vivo. The conditions noted are these: mouse MES, 1 h and 4 h pretreatment timepoints. On the procedure:
Male, CD-1 mice (20-30 g body weight) were orally pretreated with test compound or vehicle control, and either at 1 h or 4 h post dose a maximal electroshock (45 mA amplitude, 0.2 s duration, 60 Hz) was applied by corneal electrodes. […] Animals received only one electroshock and so separate animals were used for the 1 h and 4 h timepoints. All drugs were administered in multiple doses.
On the technique in general: The maximal electroshock test induces tonic seizures with an electrical stimulus.

Data set [3] relates to SNI rats. Put plainly: Spared nerve injury (SNI) model, mechanical allodynia. The conditions noted are these: 30 mg/kg, i.p. It is filed as in vivo, rat. On the procedure: The compounds were tested for their efficacy in reducing mechanical allodynia and cold allodynia in the spared nerve injury (SNI) model of chronic neuropathic pain. In this model, the left sciatic nerve of the rat is exposed under anesthesia. Two of the branches of the sciatic nerve viz. the common peroneal and tibial nerve are ligated and sectioned. The third branch (sural nerve) is left intact. The animals were allowed a post-operative recovery period of 7 days before they were subjected to any test.
The presence of mechanical allodynia was assessed using the Dynamic Plantar Aesthesiometer (Ugo Basile, Italy) which is a modified version of the Von Frey Hair test. In this, a test filament is positioned below the animal's hind paw and the unit is activated which causes the filament to move up and touch the plantar surface of the hind paw. Increasing force is applied to the paw via the filament. […] The cut-off force is set at 50 g. The tests were done on both the non-injured (control) and the injured (SNI) paw.
Testing of compounds was done after 21 days post-operatively. After initial basal readings were taken, the test compound or the vehicle was administered (10 ml/kg) either intraperitoneally (30 mg/kg) or orally (60 mg/kg). The readings were taken again 30, 60 and 180 min after the compound/vehicle administration.

A word on the melting point: it is the temperature, or range, at which the solid turns liquid. Molecule `CC(=O)N[C@H](COC(F)F)C(=O)NCc1ccc(F)cc1` came in with a melting point of 162.7 °C.
With `CC(=O)NC(COC(F)F)C(=O)NCc1ccccc1` (centres unmarked) [Compound 3, 2-(Acetylamino)-N-benzyl-3-(difluoro-methoxy)propanamide], the duration of action result in data set [1] and in data set [2] was “longer than Lacosamide” in each case.
Turning to `CC(=O)NC(COC(F)F)C(=O)NCc1ccc(F)cc1` (centres unmarked) [Compound 4], the duration of action entry in data set [1] and in data set [2] was “longer than Lacosamide” throughout.
In the case of `CC(=O)N[C@H](COC(F)F)C(=O)NCc1ccc(Cl)cc1` [Compound 20, (2R)-2-(acetylamino)-N-(4-chlorobenzyl)-3-(difluoromethoxy)propanamide], the duration of action entry in data set [1] and in data set [2] was “longer than Lacosamide” in each case. In addition, the “withdrawal threshold, Post Admin 60 min” value in data set [3] came to 25.3 ± 3.2 g.
